Source: patent publication US11851426B2, “Bicyclic amines as CDK2 inhibitors” (Incyte Corporation, priority 2019, dated 2023)

Target: CDK2/Cyclin E1 (Homo sapiens (Human), UniProt P24941)
Assay: CDK2/Cyclin E1 HTRF enzyme activity assay
Assay type: biochemical
Conditions: 1 mM ATP; CDK2/Cyclin E1 0.25 nM; 60 minutes at room temperature
Method: Example A. CDK2/Cyclin E1 HTRF Enzyme Activity Assay
CDK2/Cyclin E1 enzyme activity assays utilize full-length human CDK2 co-expressed as N-terminal GST-tagged protein with FLAG-Cyclin E1 in a baculovirus expression system (Carna Product Number 04-165). Assays were conducted in white 384-well polystyrene plates in a final reaction volume of 8 μL. CDK2/Cyclin E1 (0.25 nM) was incubated with the compounds of the Examples (40 nL serially diluted in DMSO) in the presence of ATP (50 μM or 1 mM) and 50 nM ULight™-labeled eIF4E-binding protein 1 (THR37/46) peptide (PerkinElmer) in assay buffer (containing 50 mM HEPES pH 7.5, 1 mM EGTA, 10 mM MgCl2, 2 mM DTT, 0.05 mg/mL BSA, and 0.01% Tween 20) for 60 minutes at room temperature. The reactions were stopped by the addition of EDTA and Europium-labeled anti-phospho-4E-BP1 antibody (PerkinElmer), for a final concentration of 15 mM and 1.5 nM, respectively. HTRF signals were read after 1 hour at room temperature on a PHERAstar FS plate reader (BMG Labtech). Data was analyzed with IDBS XLFit and GraphPad Prism 5.0 software using a three or four parameter dose response curve to determine IC50 for each compound.

IC50, ≤ 20 nM:
CS(=O)(=O)N1CCC(Nc2nc3cc(-c4cn[nH]c4)ccn3n2)CC1 [Example 1, N-(1-(methylsulfonyl)piperidin-4-yl)-7-(1H-pyrazol-4-yl)-[1.2.4]triazolo[1,5-a]pyridin-2-amine]
CCOc1c(-c2cn[nH]c2)ccn2nc(NC3CCN(S(C)(=O)=O)CC3)nc12 [Example 2, 8-ethoxy-N-(1-(methylsulfonyl)piperidin-4-yl)-7-(1H-pyrazol-4-yl)-[1.2.4]triazolo[1,5-a]pyridin-2-amine]
CC(C)COc1c(-c2cn[nH]c2)ccn2nc(NC3CCN(S(C)(=O)=O)CC3)nc12 [Example 3, 8-isobutoxy-N-(1-(methylsulfonyl)piperidin-4-yl)-7-(1H-pyrazol-4-yl)-[1,2,4]triazolo[1,5-a]pyridin-2-amine]
CS(=O)(=O)N1CCC(Nc2nc3c(OCC4CC4)c(-c4cn[nH]c4)ccn3n2)CC1 [Example 4, 8-(cyclopropylmethoxy)-N-(1-(methylsulfonyl)piperidin-4-yl)-7-(1H-pyrazol-4-yl)-[1,2,4]triazolo[1,5-a]pyridin-2-amine]
CS(=O)(=O)N1CCC(Nc2nc3c(OC4CCOCC4)c(-c4cn[nH]c4)ccn3n2)CC1 [Example 5, N-(1-(methylsulfonyl)piperidin-4-yl)-7-(1H-pyrazol-4-yl)-8-((tetrahydro-2H-pyran-4-yl)oxy)-[1,2,4]triazolo[1,5-a]pyridin-2-amine]
COCCOc1c(-c2cn[nH]c2)ccn2nc(NC3CCN(S(C)(=O)=O)CC3)nc12 [Example 6, 8-(2-methoxyethoxy)-N-(1-(methylsulfonyl)piperidin-4-yl)-7-(1H-pyrazol-4-yl)-[1,2,4]triazolo[1,5-a]pyridin-2-amine]
CS(=O)(=O)N1CCC(Nc2nc3cc(-c4cn[nH]c4)c(F)cn3n2)CC1 [Example 7, 6-fluoro-N-(1-(methylsulfonyl)piperidin-4-yl)-7-(1H-pyrazol-4-yl)-[1,2,4]triazolo[1,5-a]pyridin-2-amine]
CS(=O)(=O)N1CCC(Nc2nc3cnc(-c4cn[nH]c4)cn3n2)CC1 [Example 8, N-(1-(methylsulfonyl)piperidin-4-yl)-6-(1H-pyrazol-4-yl)-[1,2,4]triazolo[1,5-a]pyrazin-2-amine]
CS(=O)(=O)N1CCC(Nc2nc3c(OCC(F)F)c(-c4cn[nH]c4)ccn3n2)CC1 [Example 9, 8-(2,2-difluoroethoxy)-N-(1-(methylsulfonyl)piperidin-4-yl)-7-(1H-pyrazol-4-yl)-[1,2,4]triazolo[1,5-a]pyridin-2-amine]
CS(=O)(=O)N1CCC(Nc2nc3c(OCC(F)(F)F)c(-c4cn[nH]c4)ccn3n2)CC1 [Example 10, N-(1-(methylsulfonyl)piperidin-4-yl)-7-(1H-pyrazol-4-yl)-8-(2,2,2-trifluoroethoxy)-[1,2,4]triazolo[1,5-a]pyridin-2-amine]
CS(=O)(=O)N1CCC(Nc2nc3c(OCC4CCOC4)c(-c4cn[nH]c4)ccn3n2)CC1 (stereo not shown) [Example 11, N-(1-(methylsulfonyl)piperidin-4-yl)-7-(1H-pyrazol-4-yl)-8-((tetrahydrofuran-3-yl)methoxy)-[1,2,4]triazolo[1,5-a]pyridin-2-amine]
CCOc1c(-c2cn[nH]c2)ccn2nc(N[C@H]3CCN(S(C)(=O)=O)C[C@H]3C)nc12 [Example 12, 8-ethoxy-N-((3R,4S)-3-methyl-1-(methylsulfonyl)piperidin-4-yl)-7-(1H-pyrazol-4-yl)-[1,2,4]triazolo[1,5-a]pyridin-2-amine]
CCOc1c(-c2cn[nH]c2)ccn2nc(N[C@H]3CCN(S(=O)(=O)C4CC4)C[C@H]3C)nc12 [Example 13, N-((3R,4S)-1-(cyclopropylsulfonyl)-3-methylpiperidin-4-yl)-8-ethoxy-7-(1H-pyrazol-4-yl)-[1,2,4]triazolo[1,5-a]pyridin-2-amine]
CC(C)Oc1c(-c2cn[nH]c2)ncn2nc(NC3CCN(S(C)(=O)=O)CC3)nc12 [Example 14, 8-isopropoxy-N-(1-(methylsulfonyl)piperidin-4-yl)-7-(1H-pyrazol-4-yl)-[1,2,4]triazolo[1,5-c]pyrimidin-2-amine]
CC(C)COc1c(-c2ccnc3[nH]ccc23)ccn2nc(NC3CCN(S(C)(=O)=O)CC3)nc12 [Example 15, 8-isobutoxy-N-(1-(methylsulfonyl)piperidin-4-yl)-7-(1H-pyrrolo[2,3-b]pyridin-4-yl)-[1,2,4]triazolo[1,5-a]pyridin-2-amine]
CC(C)COc1c(-c2ccnc(N)c2)ccn2nc(NC3CCN(S(C)(=O)=O)CC3)nc12 [Example 16, 7-(2-aminopyridin-4-yl)-8-isobutoxy-N-(1-(methylsulfonyl)piperidin-4-yl)-[1,2,4]triazolo[1,5-a]pyridin-2-amine]
CCOc1c(-c2c[nH]nc2C)ccn2nc(NC3CCN(S(C)(=O)=O)CC3)nc12 [Example 17, 8-ethoxy-7-(3-methyl-1H-pyrazol-4-yl)-N-(1-(methylsulfonyl)piperidin-4-yl)-[1,2,4]triazolo[1,5-a]pyridin-2-amine]
COC(=O)N1CCC(Oc2c(-c3cn[nH]c3)ccn3nc(NC4CCN(S(C)(=O)=O)CC4)nc23)CC1 [Example 18, Methyl 4-((2-((1-(methylsulfonyl)piperidin-4-yl)amino)-7-(1H-pyrazol-4-yl)-[1,2,4]triazolo[1,5-a]pyridin-8-yl)oxy)piperidine-1-carboxylate]
CCOc1c(-c2cn[nH]c2)ccn2nc(N[C@H]3CCN(S(=O)(=O)CCN4CC[C@@H](O)C4)C[C@H]3C)nc12 [Example 19, (R)-1-(2-(((3R,4S)-4-((8-ethoxy-7-(1H-pyrazol-4-yl)-[1,2,4]triazolo[1,5-a]pyridin-2-yl)amino)-3-methylpiperidin-1-yl)sulfonyl)ethyl)pyrrolidin-3-ol]
CCOc1c(-c2cn[nH]c2)ccn2nc(N[C@H]3CCN(S(=O)(=O)c4cnn(C)c4)C[C@H]3C)nc12 [Example 20, 8-ethoxy-N-((3R,4S)-3-methyl-1-((1-methyl-1H-pyrazol-4-yl)sulfonyl)piperidin-4-yl)-7-(1H-pyrazol-4-yl)-[1,2,4]triazolo[1,5-a]pyridin-2-amine]
CCOc1c(-c2cn[nH]c2)ccn2nc(N[C@H]3CCN(S(=O)(=O)c4cnn(C)n4)C[C@H]3C)nc12 [Example 21, 8-ethoxy-N-((3R,4S)-3-methyl-1-((2-methyl-2H-1,2,3-triazol-4-yl)sulfonyl)piperidin-4-yl)-7-(1H-pyrazol-4-yl)-[1,2,4]triazolo[1,5-a]pyridin-2-amine]
CS(=O)(=O)N1CCC(Nc2nc3c(-c4ccccc4)c(-c4cn[nH]c4)ccn3n2)CC1 [Example 22, N-(1-(methylsulfonyl)piperidin-4-yl)-8-phenyl-7-(1H-pyrazol-4-yl)-[1,2,4]triazolo[1,5-a]pyridin-2-amine]
CS(=O)(=O)N1CCC(Nc2nc3c(N4CCC(F)CC4)c(-c4cn[nH]c4)ccn3n2)CC1 [Example 23, 8-(4-fluoropiperidin-1-yl)-N-(1-(methylsulfonyl)piperidin-4-yl)-7-(1H-pyrazol-4-yl)-[1,2,4]triazolo[1,5-a]pyridin-2-amine]
CS(=O)(=O)N1CCC(Nc2nc3c(Nc4ccccc4)c(-c4cn[nH]c4)ccn3n2)CC1 [Example 24, N^2-(1-(methylsulfonyl)piperidin-4-yl)-N^8-phenyl-7-(1H-pyrazol-4-yl)-[1,2,4]triazolo[1,5-a]pyridine-2,8-diamine]
CS(=O)(=O)N1CCC(Nc2nc3c(-c4ccc(F)cc4)c(-c4cn[nH]c4)ccn3n2)CC1 [Example 25, 8-(4-fluorophenyl)-N-(1-(methylsulfonyl)piperidin-4-yl)-7-(1H-pyrazol-4-yl)-[1,2,4]triazolo[1,5-a]pyridin-2-amine]
CS(=O)(=O)N1CCC(Nc2nc3c(-c4cccc(C(F)(F)F)c4)c(-c4cn[nH]c4)ccn3n2)CC1 [Example 26, N-(1-(methylsulfonyl)piperidin-4-yl)-7-(1H-pyrazol-4-yl)-8-(3-(trifluoromethyl)phenyl)-[1,2,4]triazolo[1,5-a]pyridin-2-amine]
CCOc1c(-c2cn[nH]c2)ccn2nc(N[C@H]3CCN(S(=O)(=O)CCCN4CCCCC4)C[C@H]3C)nc12 [Example 27, 8-ethoxy-N-((3R,4S)-3-methyl-1-((3-(piperidin-1-yl)propyl)sulfonyl)piperidin-4-yl)-7-(1H-pyrazol-4-yl)-[1,2,4]triazolo[1,5-a]pyridin-2-amine]
CCOc1c(-c2cn[nH]c2)ccn2nc(N[C@H]3CCN(S(=O)(=O)CCCN(C)C)C[C@H]3C)nc12 [Example 28, N-((3R,4S)-1-((3-(dimethylamino)propyl)sulfonyl)-3-methylpiperidin-4-yl)-8-ethoxy-7-(1H-pyrazol-4-yl)-[1,2,4]triazolo[1,5-a]pyridin-2-amine]
